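Cultured in 96-well plates, cells were exposed to test compound for 48 hours across five concentrations. At the GI50, growth is halved.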 Activity calls are given as the source filed them. No stated cut-off is given here; in the data, active = GI50 up to about 1.1 µM and inactive = higher.
Columns and labels:
Assay in all cases: NCI tumour cell line growth inhibition, 48 h
KM-20L2 = system: KM-20L2
LXFL 529 = system: LXFL 529
DMS-273 = system: DMS-273
SNB-78 = system: SNB-78
RXF 631 = system: RXF 631
M19-MEL = system: M19-MEL
HOP-18 = system: HOP-18
DLD-1 = system: DLD-1
DMS-114 = system: DMS-114

Measured: GI50

CC(=O)Nc1ccc(C2CC(c3ccc([N+](=O)[O-])cc3)=Nc3ccccc3S2)cc1 (stereo unspecified)
inactive: KM-20L2 20.2 µM | LXFL 529 16.6 µM | DMS-273 24.4 µM | SNB-78 36.1 µM | RXF 631 22.9 µM | M19-MEL 18.8 µM | HOP-18 24.3 µM | DLD-1 13.3 µM

COC(=O)C1(C(=O)OC)CC2c3c(c4ccccc4n3C)CC(C1=O)N2Cc1ccccc1 (stereo unspecified)
inactive: KM-20L2 > 100 µM | LXFL 529 > 100 µM | DMS-273 > 100 µM | SNB-78 > 100 µM | RXF 631 > 100 µM | M19-MEL > 100 µM | DLD-1 > 100 µM | DMS-114 > 100 µM

CCCCCCCCC(C)CCCCCCCCC(=O)OCC(COP(=O)([O-])OCC[N+](C)(C)C)OC(=O)CCCCCCCCC(C)CCCCCCCC (stereo unspecified)
inactive: KM-20L2 > 100 µM | LXFL 529 > 100 µM | DMS-273 > 100 µM | SNB-78 > 100 µM | RXF 631 > 100 µM | M19-MEL > 100 µM | HOP-18 > 100 µM | DLD-1 > 100 µM | DMS-114 > 100 µM

Cc1ccc(NC(=O)CC(=O)n2nc(C)c(/N=N/c3ccccc3C(=O)O)c2C)cc1
inactive: KM-20L2 > 100 µM | LXFL 529 > 100 µM | DMS-273 > 100 µM | SNB-78 > 100 µM | RXF 631 > 100 µM | M19-MEL > 100 µM | DLD-1 > 100 µM | DMS-114 > 100 µM

Cn1c2c(cc(-c3ccccc3)c1=O)COc1ccccc1-2
inactive: KM-20L2 25.1 µM | LXFL 529 31.4 µM | DMS-273 19.5 µM | SNB-78 33.7 µM | M19-MEL 25.6 µM | HOP-18 > 100 µM | DLD-1 36.6 µM | DMS-114 15.4 µM

S=C(Nc1ccccc1)N(/N=C/C=C/c1ccccc1)c1nnc(-c2ccccc2)c(-c2ccccc2)n1
inactive: KM-20L2 > 100 µM | DMS-273 45.5 µM | SNB-78 > 100 µM | RXF 631 80.7 µM | M19-MEL 64.9 µM | DLD-1 76.4 µM | DMS-114 26.4 µM

Cc1ccccc1N1C(=O)/C(=C/c2ccc(N(CCC#N)CCC#N)cc2)N=C1c1cc([N+](=O)[O-])ccc1Cl
inactive: KM-20L2 > 100 µM | LXFL 529 96.8 µM | DMS-273 78.9 µM | SNB-78 > 100 µM | RXF 631 > 100 µM | HOP-18 > 100 µM | DLD-1 79.1 µM | DMS-114 > 100 µM

Cn1nc(-c2ccccc2)c(C(=O)/C=C/c2ccccc2)c(N2CCOCC2)c1=O
inactive: KM-20L2 18.1 µM | LXFL 529 16 µM | DMS-273 19.8 µM | M19-MEL 23.1 µM | HOP-18 28.6 µM | DLD-1 20.4 µM | DMS-114 16.8 µM

CCOC(=O)NC(=O)c1cn(CCN2CCN(C(=O)NCCCCCCNC(=O)N3CCN(CCn4cc(C(=O)NC(=O)OCC)c(=O)n(CCN(CC)CC)c4=O)CC3)CC2)c(=O)n(CCC(CC)CC)c1=O
inactive: KM-20L2 > 100 µM | LXFL 529 > 100 µM | DMS-273 > 100 µM | SNB-78 > 100 µM | M19-MEL > 100 µM | HOP-18 > 100 µM | DLD-1 > 100 µM | DMS-114 > 100 µM

COc1ccc(C2C(Cl)C(=O)N2NC(=O)c2ccc(N)cc2)cc1OC (stereo unspecified)
inactive: KM-20L2 12.1 µM | LXFL 529 1.95 µM | DMS-273 2.72 µM | SNB-78 63.7 µM | M19-MEL 4.95 µM | DLD-1 3.66 µM

OCC(O)C(O)C(O)C1SC(c2ccccc2)=NN1c1ccccc1 (stereo unspecified)
inactive: KM-20L2 > 100 µM | LXFL 529 > 95.5 µM | DMS-273 > 76.6 µM | SNB-78 44.4 µM | RXF 631 49.3 µM | M19-MEL > 100 µM | HOP-18 51.8 µM | DLD-1 > 100 µM | DMS-114 > 84.7 µM

O=[N+]([O-])c1cc(Cl)ccc1OCc1ccccc1
inactive: LXFL 529 41.6 µM | DMS-273 54.6 µM | SNB-78 32.8 µM | RXF 631 > 100 µM | M19-MEL 44.3 µM | DLD-1 82.2 µM | DMS-114 29.4 µM

CC(=O)c1cccc(NC(=O)C(=O)C(C2OC(=O)c3ccccc32)[N+](=O)[O-])c1 (stereo unspecified)
inactive: KM-20L2 > 100 µM | LXFL 529 > 100 µM | SNB-78 > 100 µM | RXF 631 > 100 µM | M19-MEL > 100 µM | DLD-1 > 100 µM | DMS-114 > 100 µM

O=C(O)C(=O)/C=C\c1ccc(Cl)cc1
inactive: KM-20L2 > 100 µM | LXFL 529 > 100 µM | DMS-273 > 100 µM | SNB-78 > 100 µM | M19-MEL > 100 µM | HOP-18 > 100 µM | DLD-1 > 100 µM | DMS-114 84.1 µM

COc1cc(/C=N/N=C(\N)NO)c([N+](=O)[O-])cc1OC
inactive: KM-20L2 30.1 µM | LXFL 529 27 µM | DMS-273 25.9 µM | SNB-78 76.2 µM | RXF 631 26.7 µM | M19-MEL 31.9 µM | HOP-18 21 µM | DLD-1 56 µM | DMS-114 6.75 µM

N#Cc1c(N)oc2cc3c(C#N)c(N)oc3cc12
inactive: KM-20L2 > 100 µM | LXFL 529 > 100 µM | DMS-273 > 100 µM | RXF 631 > 100 µM | M19-MEL > 100 µM | HOP-18 > 100 µM | DLD-1 > 100 µM | DMS-114 > 100 µM

O=C1C2C3C=C4c5ccccc5N(c5ccccc5)C4(C2C(=O)N1c1ccc([N+](=O)[O-])cc1)[C@H]1C(=O)N(c2ccc([N+](=O)[O-])cc2)C(=O)[C@@H]31 (stereo partly specified)
inactive: KM-20L2 > 100 µM | DMS-273 > 100 µM | SNB-78 > 100 µM | M19-MEL > 100 µM | HOP-18 > 100 µM | DLD-1 > 100 µM | DMS-114 > 100 µM

COC(=O)C1=C(O)c2cc(OC)c(OC)c(OC)c2C(c2ccc3c(c2)OCO3)[C@@H]1C(=O)OC (stereo partly specified)
inactive: KM-20L2 2.36 µM | LXFL 529 3.08 µM | DMS-273 3.02 µM | SNB-78 15.1 µM | RXF 631 5.82 µM | HOP-18 23.1 µM | DLD-1 4.69 µM | DMS-114 2.4 µM

CCN(CC)CCCC(C)NC(=O)c1ccc2c(c1)C(=O)c1ccccc1C2=O (stereo unspecified)
inactive: KM-20L2 18.3 µM | LXFL 529 24.7 µM | DMS-273 21.9 µM | SNB-78 22.9 µM | RXF 631 24.1 µM | M19-MEL 16.7 µM | HOP-18 > 85.5 µM | DLD-1 17.5 µM | DMS-114 11.4 µM

O=C(O)CS [THIOGLYCOLIC ACID]
inactive: KM-20L2 > 100 µM | LXFL 529 > 100 µM | DMS-273 > 100 µM | SNB-78 > 100 µM | M19-MEL > 100 µM | DLD-1 > 100 µM | DMS-114 > 100 µM

From ChEMBL document CHEMBL1201862, “PubChem BioAssay data set” (2004)
